# Laboratory results from patent US12171854B2, “Heterocyclic-dithiol click chemistry” (Northeastern University, priority 2017, dated 2024).
# Where “and” joins values, the source holds several entries; their conditions need not be identical. Equal entries are not always repeated. Entries after “also recorded” stand apart in the source; their conditions may differ.
# Assays:
# C111S SOD1 = molecular target: T1, C111S SOD1 (Homo sapiens, UniProt P00441, C112S); test: Localization of cross-link using point mutated C111S SOD1 (LC-MS); format: biochemical; conditions: 10 μM SOD1, 100 μM compound, overnight, room temperature
# T1 construct: made in house; host or cells: EGy118ΔSOD1 yeast, vector YEp-351
# Description: Aliquots from each of the SOD1 incubations were individually diluted ten-fold with H2O containing 0.1% formic acid and analyzed using reversed phase C18 LC-MS on a Bruker HCT Ultra ion trap. The resulting data were processed using DataAnalysis 3.4 (Bruker Daltonics). Mass spectra were averaged across the retention times corresponding to when SOD1 eluted and were deconvoluted to determine the molecular weight of the uncharged species.
# WT SOD1 [1] = molecular target: T2, WT SOD1 (Homo sapiens, UniProt P00441); test: In vitro DTT competition assay; format: biochemical; conditions: 1:1 cross-linker:DTT (equimolar), 24 h, 37° C.
# T2 construct: made in house; host or cells: EGy118ΔSOD1 yeast, vector YEp-351
# Description: Purified WT SOD1 was diluted to 50 μM in 10 mM ammonium acetate, pH 7.4. […] DTT solutions were made in 100% HPLC grade H2O. DTT solution concentrations were 1 mM, 2 mM and 4 mM. Samples were left to incubate at 37° C. for 24 h. Samples were then diluted to 1 μM SOD1 in 50:50 acetonitrile:water, 0.1% FA and analyzed by direct infusion into a Bruker Solarix XR FT-ICR mass spectrometer
# WT SOD1 [2] = molecular target: T2, WT SOD1; test: SOD1 cross-linking kinetics, mass spectrometry assay (percent covalent dimer); format: biochemical; conditions: for % of SOD1 cross-linked after 10 min of incubation: 50 μM SOD1, 1000 μM compound (20× excess), pH 7.4, 10 min; for binding to single Cys residues (free Cys111 and Cys6) of SOD1: any sample; for cross-linking of SOD1, result in words (FIG. 13): 1:1 ratio of SOD1 dimer:cross-linker
# Description: The reaction was monitored using a mass spectrometry (MS) assay that uses a combination of increased voltage within the region of hypersonic gas expansion and brief treatment with 10% formic acid to create exclusively monomeric SOD1 or covalently cross-linked SOD1 dimer. Formic acid also quenches the reaction, transforming any reactive thiolates to unreactive thiols. As a result, if no reaction occurs, only apo SOD1 monomer is detected (FIG. 2, top). […] Given sufficient time for thiolates to be oxidized to sulfenic acid (which occurs on the order of days-weeks), even 1,2-dithiane was expected to cross-link SOD1. After 72 h of incubation with 1,2-dithiane, 11% of SOD1 had formed the expected covalent dimer (FIG. 5).
# Human WT SOD1 was expressed in yeast. […] Dilution in HPLC-Grade water to 1 mM cyclic disulfide was performed prior to experimentation. As a negative control, 50 μM human WT SOD1 was incubated at 37° C. with 4% HPLC-grade methanol. At every time point, 1 μL of each sample was removed from their respective reaction vial for analysis. Samples were briefly (˜30 seconds) incubated at room temperature with 10% formic acid to remove metals from SOD1 and quench cross-linking reaction prior to mass spectrometry analysis. Samples were then diluted to 1 μM SOD1 in 50:50 acetonitrile:water, 0.1% FA and analyzed by direct infusion into a Bruker SolariX XR FT-ICR mass spectrometer. The percent dimer formation was calculated by comparing the relative dimer (31,808 Da) and monomer (15,844 Da) MaxEnt deconvoluted peak heights (Dimer/(Dimer+Monomer)). Identical methods were used in the kinetics of α-lipoic acid and β-lipoic acid. Kinetics of 1,2-dithiepane vs. 1,2-dithiepane-1-oxide were performed at a 1:1 ratio of SOD1 dimer:cross-linker.
# SH-SY5Y cells = format: cell-based; conditions: 24 h
# Description: Human immortalized neuroblastoma cells (SH-SY5Y) were purchased from ATCC (Manassas, Virginia, USA). Cells were grown in Eagle's Minimum Essential Medium (EMEM) supplemented with 10% fetal bovine serum at 37° C. and 5% CO2 to >70% confluency. […] Following incubation with 1,2-dithaine-1-oxide, 22 μL of PrestoBlue® was added to each well and allowed to incubate for 10 min at 37° C. Excitation/emission was measured at 560/590 (in nm) using an Infinite® 200 plate reader (Tecan, Mannedorf, Switzerland). Cell viability was quantified relative to untreated cells.
# WT SOD1 [3] = molecular target: T2, WT SOD1; test: In vitro glutathione competition assay; format: biochemical
# Description: Purified WT SOD1 was diluted to 10 μM in 10 mM ammonium acetate, pH 7.4. […] Samples were briefly (30 seconds) incubated at room temperature with 10% formic acid to remove metals from SOD1 prior to mass spectrometry analysis. Samples were then diluted to 1 μM SOD1 in 50:50 acetonitrile:water, 0.1% FA and analyzed by direct infusion into a Bruker Solarix XR FT-ICR mass spectrometer. The percent dimer formation was calculated by comparing the relative dimer (31,808 Da) and monomer (15,844 Da) MaxEnt deconvoluted peak heights (Dimer/(Dimer+Monomer))
# SOD1 in HeLa cells = molecular target: T3, SOD1 in HeLa cells (Homo sapiens, UniProt P00441); test: SOD1 cross-linking in HeLa cells, western blot; format: cell-based; conditions: EC50 for cross-linking of SOD1, HeLa cells
# T3 construct: endogenous in cells; host or cells: HeLa
# Description: HeLa cells were cultured in DMEM with 10% fetal bovine serum and penicillin/streptomycin in 24 well Costar® Corning CellBIND plate with 5% CO2 at 37° C. The cells were cultured to monolayer confluency. […] The 100 mM solution diluted to various concentrations with 1×PBS solution. 1 mL of solutions was added to the HeLa cells in the 24 well plate. […] Cells were washed 2× with 1 mL PBS. After removing the second PBS wash, the cells were then treated with 6× non-reducing SDS sample buffer and collected. The collected cell lysate was divided into two parts. One half was treated with 5% β-ME, to remove bound cyclic disulfides, as negative controls. The other half was treated with equal amount of milliQ water. All the cell lysate samples were then heated at 80° C. for 10 minutes in an Eppendorf Thermomixer. The samples were spun at 14000 rpm for 5 minutes in Beckman Coulter Microfuge centrifuge. HeLa cell extracts were separated on 12% SDS-polyacrylamide TrisHCl gels run at 80 V at room temperature. Proteins were transferred to nitrocellulose membranes for Western blotting. Monomer and covalently-linked dimer SOD1 were detected using the rabbit polyclonal anti-SOD1 antibody SOD100. Membranes are incubated with HRP-labeled secondary antibodies and visualized using ECL Western Blotting Substrate and imaged using the ChemiDoc MP.
# SOD1 in Hep G2 cells = molecular target: T4, SOD1 in Hep G2 cells (Homo sapiens, UniProt P00441); test: SOD1 cross-linking in Hep G2 cells, western blot; format: cell-based; conditions: for cross-linking of SOD1 in cells, result in words: Hep G2 cells, increasing concentrations, compared with α-lipoic acid
# T4 construct: endogenous in cells; host or cells: Hep G2
# Description: Hep G2 cells were cultures in DMEM with 10% fetal bovine serum and penicillin/streptomycin in 96 well Costar® Corning CellBIND plate with 5% CO2 at 37° C. The cells were cultured to monolayer confluency. […] Stocks were diluted twenty-fold in 1×PBS (final DMSO 5%). Cells were treated with 200 uL of compound and incubated for 30 minutes at 37° C. 5% CO2. Cells were washed with 1×PBS and 20 μL of 6× nonreducing sample buffer was added to each well. The 96 well plate was heated to 90° C. for 10 minutes. Samplers were spun at 14000 RPM for 5 minutes in a Beckman Coulter Microfuge®18 centrifuge. Samples were run using a Bio Rad Mini-Protean electrophoresis chamber on 12% precast TGX polyacrylamide gels at 150V. After separation was complete, gels were extracted from the cassettes and incubated in an in-house transfer buffer for 10 minutes are 90° C. to ensure thorough transfer of protein bands and thorough binding of antibody (25 mM Tris, 192 mM glycine, 10 mM 2-mercaptoethanol, 0.1% SDS). Transfer was performed with a Bio Rad Trans-blot turbo transfer system using a trans-clot turbo transfer pack. Membranes were dried, blocked with 5% milk for 2 h at room temperature. Membranes were then probed with primary antibody, anti-SOD1 antibody SOD100 overnight at 4° C. Membranes are incubated with HRP-labeled secondary antibodies and visualized using ECL Western Blotting Substrate and imaged using the ChemiDoc MP.
# [4] = with reduced glutathione; cited from earlier work
# [5] = 50 μM SOD1, 20× excess compound
# [6] = 10× compound and 100× reduced glutathione
# T2 sequence (P00441 2-154 limits assumed): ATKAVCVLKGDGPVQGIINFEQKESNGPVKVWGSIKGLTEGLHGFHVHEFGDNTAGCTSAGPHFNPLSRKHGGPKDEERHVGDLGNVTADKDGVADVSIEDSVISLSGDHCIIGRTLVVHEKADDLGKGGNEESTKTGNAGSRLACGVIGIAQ
# T4 sequence (P00441 2-154 limits assumed): as above
# T1 sequence (P00441 2-154 C112S limits assumed): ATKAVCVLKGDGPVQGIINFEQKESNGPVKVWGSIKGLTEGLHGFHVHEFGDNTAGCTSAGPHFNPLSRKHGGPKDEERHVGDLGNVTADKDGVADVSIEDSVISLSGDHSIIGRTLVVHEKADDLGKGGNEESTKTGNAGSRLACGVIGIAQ
# T3 sequence (P00441 2-154 limits assumed): as the sequence (P00441 2-154 limits assumed) above
compound,measurement,setting,value
"[O-][S+]1CCCCS1 (stereo not shown) [1,2-dithiane-1-oxide]",covalent dimer formation with C111S SOD1,C111S SOD1,No cross-linking was observed; also recorded: no covalent dimer formation
same,"cross-linking of SOD1 in the presence of DTT, result in words",WT SOD1 [1],proceeded to completion; also recorded: ability to cross-link the thiol pair of SOD1
same,% of SOD1 cross-linked after 10 min of incubation,WT SOD1 [2]; 37° C.,95%
same,"cross-linking of SOD1, result in words",WT SOD1 [2]; [5],rapid and complete dithiolate cross-linking
same,binding to single Cys residues (free Cys111 and Cys6) of SOD1,WT SOD1 [2],no binding to single Cys residues
same,overall second order rate constant of cross-linking product formation,"WT SOD1 [2]; multi-concentration kinetics, protocol of Singh et al.",250 M⁻¹ s⁻¹
same,"concentration at which cell viability is equivalent to untreated cells, relative to EC50",SH-SY5Y cells,50 fold
same,"cross-linking of SOD1 in the presence of glutathione, result in words",WT SOD1 [3]; 10:1 ratio of glutathione:compound,proceeded to completion; also recorded: can efficiently cross-link SOD1
same,cross-linking yield in the presence of glutathione,WT SOD1 [3]; [6],100%
same,rate of cross-linking in the presence of glutathione,WT SOD1 [3]; [6],decreased
same,EC50,SOD1 in HeLa cells,~5 µM and 1 to 5 µM
same,EC50,"SOD1 in Hep G2 cells; EC50 for cross-linking of SOD1, Hep G2 cells, 30 min incubation, western blot",~5 µM and 1 to 5 µM
"C1CCSSC1 [1,2-dithiane]",% of SOD1 cross-linked after 10 min of incubation,WT SOD1 [2]; 37° C.,0%
same,"cross-linking of SOD1, result in words",WT SOD1 [2]; [5],slow cross-link formation
same,% of SOD1 forming covalent dimer after three days (72 h),"WT SOD1 [2]; 50 μM SOD1, 20× excess compound, 37° C., 72 h",11%
same,binding to single Cys residues (free Cys111 and Cys6) of SOD1,WT SOD1 [2],no binding to single Cys residues
"[O-][S+]1CCCCCS1 (stereo not shown) [1,2-dithiepane-1-oxide]","cross-linking of SOD1, result in words (FIG. 13)",WT SOD1 [2],rapid and complete cross-link of SOD1
"C1CCSSCC1 [1,2-dithiepane]","cross-linking of SOD1, result in words (FIG. 13)",WT SOD1 [2],does not
"[O-][S+]1CCCCCCS1 (stereo not shown) [1,2-dithiocane-1-oxide]","cross-linking of SOD1, result in words (FIG. 15)",WT SOD1 [2],rapid and complete cross-link of SOD1
"C1CCCSSCC1 [1,2-dithiocane]","cross-linking of SOD1, result in words (FIG. 15)",WT SOD1 [2],does not
OC1CSSCC1O (stereo not shown) [oxidized DTT],extrapolated half-life of thiol-disulfide exchange,[4],> 3.33 h
β-lipoic acid,"rate and extent of covalent cross-linking of SOD1 versus α-lipoic acid, in words",WT SOD1 [2]; mass spectrometry assay,Both rate and extent of covalent cross-linking of SOD1 is increased
same,more SOD1 cross-linked in vitro compared to ALA,"WT SOD1 [2]; mass spectrometry assay, compared to ALA",30%
same,"cross-linking of SOD1 in cells, result in words",SOD1 in Hep G2 cells,"cross-links SOD1 in Hep G2 cells, and does so more efficiently than the cyclic disulfide, α-lipoic acid"
same,"cross-linking of SOD1 in cells, result in words",SOD1 in Hep G2 cells; listed as BLA,cross-linked SOD1 in cells
